According to ChEMBL document CHEMBL3769307, “Selective inhibitors of phosphodiesterases: therapeutic promise for neurodegenerative disorders” (Medchemcomm, 2015):

Target: High affinity 3',5'-cyclic-AMP phosphodiesterase 7A (Homo sapiens, UniProt Q13946)
Experiment: Inhibition of PDE7A (unknown origin)

Chain of High affinity 3',5'-cyclic-AMP phosphodiesterase 7A (Q13946 whole entry): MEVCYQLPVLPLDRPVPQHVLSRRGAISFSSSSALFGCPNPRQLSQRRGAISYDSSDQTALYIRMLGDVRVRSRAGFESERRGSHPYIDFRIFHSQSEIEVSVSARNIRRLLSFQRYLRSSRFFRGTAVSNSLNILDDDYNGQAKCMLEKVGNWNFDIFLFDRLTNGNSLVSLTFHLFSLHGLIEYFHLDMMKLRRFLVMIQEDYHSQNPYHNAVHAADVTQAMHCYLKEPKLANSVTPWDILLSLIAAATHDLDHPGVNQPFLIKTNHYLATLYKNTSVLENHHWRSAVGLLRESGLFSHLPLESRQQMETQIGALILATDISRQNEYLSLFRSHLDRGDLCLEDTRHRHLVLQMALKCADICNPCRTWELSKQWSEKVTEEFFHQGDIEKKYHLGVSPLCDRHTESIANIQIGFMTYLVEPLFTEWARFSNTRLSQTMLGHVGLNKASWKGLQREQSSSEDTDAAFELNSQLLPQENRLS

| SMILES | IC50 |
| --- | --- |
| O=c1c2ccccc2[nH]c(=S)n1-c1ccccc1 | 5500 nM |

Test system: not listed separately
Experiment: Inhibition of cGMP activated PDE2 (unknown origin)
Parameters: species or system Homo sapiens

| SMILES | IC50 |
| --- | --- |
| COc1ccc(Cc2nc3c(ncn3C(CCCc3ccccc3)C(C)=O)c(=O)[nH]2)cc1OC (centres undefined) | 0.6 nM |
| CCCCCC[C@H]([C@H](C)O)n1cnc2c(N)ncnc21 (relative stereo) [(+)-EHNA] | 700 nM |

Target: cGMP-specific 3',5'-cyclic phosphodiesterase (Homo sapiens, UniProt O76074)
Experiment: Inhibition of PDE5 (unknown origin)

| SMILES | IC50 |
| --- | --- |
| CCNc1cc(C#N)cc2c(NCc3ccc(OC)c(Cl)c3)c(CO)cnc12 | 0.27 nM |
| COc1ccc(CNc2c(CO)cnc3c(NCCN(C)C)cc(C#N)cc23)cc1Cl | 0.27 nM |
| COc1ccc(CNc2c(CO)cnc3c(N4CCOCC4)cc(C#N)cc23)cc1Cl | 0.27 nM |
| COc1ccc(CNc2c(CO)cnc3c(N(C)C)cc(C#N)cc23)cc1Cl | 0.27 nM |
| COc1ccc(CNc2c(CO)cnc3c(NC4CC4)cc(C#N)cc23)cc1Cl | 0.27 nM |

Target: 3',5'-cyclic-AMP phosphodiesterase 4D (Homo sapiens, UniProt Q08499)
Experiment: Inhibition of PDE4D3 (unknown origin)

Chain of 3',5'-cyclic-AMP phosphodiesterase 4D (Q08499 whole entry): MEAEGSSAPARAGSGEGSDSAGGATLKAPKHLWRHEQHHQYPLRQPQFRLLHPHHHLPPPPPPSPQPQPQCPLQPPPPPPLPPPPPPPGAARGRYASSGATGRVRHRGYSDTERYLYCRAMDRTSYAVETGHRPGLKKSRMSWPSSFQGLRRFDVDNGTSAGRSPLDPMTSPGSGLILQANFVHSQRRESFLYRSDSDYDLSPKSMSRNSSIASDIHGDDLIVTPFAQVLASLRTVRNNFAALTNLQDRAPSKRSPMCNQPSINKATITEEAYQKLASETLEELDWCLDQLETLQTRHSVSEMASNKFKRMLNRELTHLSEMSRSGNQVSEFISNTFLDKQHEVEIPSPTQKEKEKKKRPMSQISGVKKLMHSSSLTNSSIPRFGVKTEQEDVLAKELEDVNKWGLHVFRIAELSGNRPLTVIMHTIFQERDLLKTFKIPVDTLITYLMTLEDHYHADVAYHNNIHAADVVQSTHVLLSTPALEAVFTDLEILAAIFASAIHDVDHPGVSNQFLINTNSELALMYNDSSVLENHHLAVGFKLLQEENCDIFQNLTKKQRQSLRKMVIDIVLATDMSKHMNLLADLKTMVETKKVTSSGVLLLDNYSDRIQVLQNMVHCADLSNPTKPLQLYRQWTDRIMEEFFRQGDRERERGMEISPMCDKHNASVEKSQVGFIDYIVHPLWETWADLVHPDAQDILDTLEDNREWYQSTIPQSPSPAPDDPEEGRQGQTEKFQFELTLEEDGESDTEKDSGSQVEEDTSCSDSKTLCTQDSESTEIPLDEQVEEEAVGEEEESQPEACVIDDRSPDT

| SMILES | IC50 |
| --- | --- |
| COc1ccc([C@@H]2CNC(=O)[C@@H](Cc3cccc(C)c3)C2)cc1OC1CCCC1 | 150 nM |

Test system: not listed separately
Experiment: Inhibition of PDE9 (unknown origin)
Parameters: species or system Homo sapiens

| SMILES | IC50 |
| --- | --- |
| C[C@H](Cc1nn2c(-c3ccccc3Cl)ncc2c(=O)[nH]1)C(F)(F)F | 55 nM |

Target: Phosphodiesterase 4 (Homo sapiens, UniProt P27815+Q08499+Q07343+Q08493)
Experiment: Inhibition of PDE4 (unknown origin)
Type: protein assay

| SMILES | IC50 |
| --- | --- |
| O=C(NC1CC1)c1cn(-c2cccc(-c3ccc([C@@H]4C[C@H]4c4nnn[nH]4)cc3)c2)c2ncccc2c1=O (relative stereo) | 0.55 nM |
| O=C(NC1CC1)c1cn(-c2cccc(C#Cc3ccc[n+]([O-])c3)c2)c2ncccc2c1=O [MK-0873] | 5.1 nM |
| CC(C)(c1cc(-c2cccc(-c3ccc([C@@H]4C[C@H]4C(=O)O)cc3)c2)c2ncccc2c1)S(C)(=O)=O (relative stereo) | 0.32 nM |
| CCCCCC[C@H]([C@H](C)O)n1cnc2c(N)ncnc21 (relative stereo) [(+)-EHNA] | 1700 nM |

The next lines start with the values.

| IC50 | SMILES |
| --- | --- |
| 0.54 nM | O=C(NC1CC1)c1cn(-c2cccc(-c3cccc([C@@H]4C[C@H]4C(=O)O)c3)c2)c2ncccc2c1=O |
| 0.85 nM | CC(C)(CC(=O)O)c1ccc(-c2cccc(-n3cc(C(=O)NC4CC4)c(=O)c4cccnc43)c2)cc1 |
| 17 nM | O=C(NC1(O)CC1)c1cn(-c2cccc(-c3ccc([C@@H]4C[C@H]4C(=O)O)cc3)c2)c2ncccc2c1=O (relative stereo) |
| 0.88 nM | CC(C)(Cc1ccc(-c2cccc(-n3cc(C(=O)NC4CC4)c(=O)c4cccnc43)c2)cc1)C(=O)O |
| 0.52 nM | O=C(NC1CCC1)c1cn(-c2cccc(-c3ccc([C@@H]4C[C@H]4C(=O)O)cc3)c2)c2ncccc2c1=O (relative stereo) |
| 32 nM | CC(C)(C)NC(=O)c1cn(-c2cccc(-c3ccc([C@@H]4C[C@H]4C(=O)O)cc3)c2)c2ncccc2c1=O (relative stereo) |
| 0.51 nM | O=C(NCC(F)(F)F)c1cn(-c2cccc(-c3ccc([C@@H]4C[C@H]4C(=O)O)cc3)c2)c2ncccc2c1=O (relative stereo) |
| 4.6 nM | O=C(NC1CC1)c1cn(-c2cccc(-c3ccccc3[C@@H]3C[C@H]3C(=O)O)c2)c2ncccc2c1=O (relative stereo) |
| 0.53 nM | O=C(NC1CC1)c1cn(-c2cccc(-c3ccc([C@@H]4C[C@@H]4C(=O)O)c(F)c3)c2)c2ncccc2c1=O (relative stereo) |
| 1.6 nM | O=C(NC1CC1)c1cn(-c2cccc(-c3ccc([C@@H]4C[C@@H]4C(=O)O)cc3)c2)c2ncccc2c1=O (relative stereo) |
| 0.35 nM | O=C(NCC1CC1)c1cn(-c2cccc(-c3ccc([C@@H]4C[C@H]4C(=O)O)cc3)c2)c2ncccc2c1=O (relative stereo) |
| 0.57 nM | O=C(NC1CC1)c1cn(-c2cccc(-c3ccc([C@@H]4C[C@H]4C(=O)O)cc3)c2)c2ncccc2c1=O (relative stereo) |
| 0.58 nM | CC1(NC(=O)c2cn(-c3cccc(-c4ccc([C@@H]5C[C@H]5C(=O)O)cc4)c3)c3ncccc3c2=O)CC1 (relative stereo) |

Test system: not listed separately
Experiment: Inhibition of bovine PDE2
Parameters: species or system Bos taurus

| SMILES | IC50 |
| --- | --- |
| COc1ccc(Cc2nc(O)c3c(C)nc([C@@H](CCCc4ccccc4)[C@@H](C)O)n3n2)cc1OC | 2 nM |

Test system: not listed separately
Experiment: Inhibition of cGMP stimulated pig PDE2A
Parameters: species or system Sus scrofa

| SMILES | IC50 |
| --- | --- |
| CCCCCC[C@H]([C@H](C)O)n1cnc2c(N)ncnc21 (relative stereo) [(+)-EHNA] | 2000 nM |
